Consider 13 compounds from ChEMBL document CHEMBL1201862, “PubChem BioAssay data set” (2004).

Series [1] relates to Vero. Briefly: Vero cell cytotoxicity, cytotoxicity control for flavivirus capping enzyme inhibitors (AID 588742). The note with it: Chlorocebus sabaeus. The series is classed as functional.
In series [2] the target is T1, Coagulation factor XII (Homo sapiens, UniProt P00748).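 Also: activated factor XIIa alpha cleaving a fluorogenic AMC peptide substrate; inhibitor potency from loss of enzyme activity.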
T1 sequence (P00748 whole entry): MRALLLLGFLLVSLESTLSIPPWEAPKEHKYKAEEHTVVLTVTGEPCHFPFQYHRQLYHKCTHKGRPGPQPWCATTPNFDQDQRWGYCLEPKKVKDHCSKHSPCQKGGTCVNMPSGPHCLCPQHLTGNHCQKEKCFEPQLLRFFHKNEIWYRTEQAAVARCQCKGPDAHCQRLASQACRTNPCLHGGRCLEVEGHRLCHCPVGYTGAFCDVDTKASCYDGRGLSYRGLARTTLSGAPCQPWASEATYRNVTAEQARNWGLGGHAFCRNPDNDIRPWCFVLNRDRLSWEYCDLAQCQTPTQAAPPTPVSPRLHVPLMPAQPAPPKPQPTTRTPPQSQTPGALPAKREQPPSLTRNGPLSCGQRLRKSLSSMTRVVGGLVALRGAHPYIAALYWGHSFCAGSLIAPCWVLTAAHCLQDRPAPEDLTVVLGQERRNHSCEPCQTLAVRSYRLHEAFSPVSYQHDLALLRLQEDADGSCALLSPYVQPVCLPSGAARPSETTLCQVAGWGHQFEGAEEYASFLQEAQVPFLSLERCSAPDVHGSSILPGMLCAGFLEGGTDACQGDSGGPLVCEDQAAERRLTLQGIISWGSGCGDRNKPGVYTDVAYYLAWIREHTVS
In kind it is functional.

The target of series [3] is T2, Replicative DNA helicase DnaB (Mycobacterium tuberculosis, UniProt P9WMR3).
T2 sequence (P9WMR3 whole entry): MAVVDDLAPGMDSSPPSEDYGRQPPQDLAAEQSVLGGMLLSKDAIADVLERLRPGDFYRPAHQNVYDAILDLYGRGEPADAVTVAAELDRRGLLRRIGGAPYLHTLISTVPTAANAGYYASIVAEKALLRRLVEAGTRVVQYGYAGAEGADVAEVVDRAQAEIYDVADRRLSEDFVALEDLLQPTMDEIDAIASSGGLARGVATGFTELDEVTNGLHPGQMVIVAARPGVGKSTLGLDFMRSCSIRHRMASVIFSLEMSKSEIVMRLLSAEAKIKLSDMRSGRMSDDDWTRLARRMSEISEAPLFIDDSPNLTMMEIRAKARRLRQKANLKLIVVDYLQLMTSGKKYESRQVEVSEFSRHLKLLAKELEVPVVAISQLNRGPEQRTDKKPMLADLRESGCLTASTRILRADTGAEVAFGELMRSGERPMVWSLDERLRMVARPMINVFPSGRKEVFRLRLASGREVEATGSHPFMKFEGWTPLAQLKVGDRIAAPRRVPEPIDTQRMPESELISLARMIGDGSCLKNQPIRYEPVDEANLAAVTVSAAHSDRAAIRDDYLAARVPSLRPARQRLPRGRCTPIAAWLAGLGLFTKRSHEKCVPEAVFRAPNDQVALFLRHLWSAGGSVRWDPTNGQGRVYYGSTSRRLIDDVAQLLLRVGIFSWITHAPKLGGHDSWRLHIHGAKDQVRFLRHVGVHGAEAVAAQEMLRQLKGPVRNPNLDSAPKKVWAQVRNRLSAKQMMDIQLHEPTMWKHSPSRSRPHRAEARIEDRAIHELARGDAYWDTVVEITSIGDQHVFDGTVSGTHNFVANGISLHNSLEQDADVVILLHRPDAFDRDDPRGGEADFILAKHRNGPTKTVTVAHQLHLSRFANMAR
In words: DnaB intein splicing inhibitors, dose response, biochemical, cell-free fluorescence (AID 449749). In kind it is functional.

Series [4] has as its target T3, Protein RecA (Mycobacterium tuberculosis, UniProt P9WHJ3).
T3 sequence (P9WHJ3 whole entry): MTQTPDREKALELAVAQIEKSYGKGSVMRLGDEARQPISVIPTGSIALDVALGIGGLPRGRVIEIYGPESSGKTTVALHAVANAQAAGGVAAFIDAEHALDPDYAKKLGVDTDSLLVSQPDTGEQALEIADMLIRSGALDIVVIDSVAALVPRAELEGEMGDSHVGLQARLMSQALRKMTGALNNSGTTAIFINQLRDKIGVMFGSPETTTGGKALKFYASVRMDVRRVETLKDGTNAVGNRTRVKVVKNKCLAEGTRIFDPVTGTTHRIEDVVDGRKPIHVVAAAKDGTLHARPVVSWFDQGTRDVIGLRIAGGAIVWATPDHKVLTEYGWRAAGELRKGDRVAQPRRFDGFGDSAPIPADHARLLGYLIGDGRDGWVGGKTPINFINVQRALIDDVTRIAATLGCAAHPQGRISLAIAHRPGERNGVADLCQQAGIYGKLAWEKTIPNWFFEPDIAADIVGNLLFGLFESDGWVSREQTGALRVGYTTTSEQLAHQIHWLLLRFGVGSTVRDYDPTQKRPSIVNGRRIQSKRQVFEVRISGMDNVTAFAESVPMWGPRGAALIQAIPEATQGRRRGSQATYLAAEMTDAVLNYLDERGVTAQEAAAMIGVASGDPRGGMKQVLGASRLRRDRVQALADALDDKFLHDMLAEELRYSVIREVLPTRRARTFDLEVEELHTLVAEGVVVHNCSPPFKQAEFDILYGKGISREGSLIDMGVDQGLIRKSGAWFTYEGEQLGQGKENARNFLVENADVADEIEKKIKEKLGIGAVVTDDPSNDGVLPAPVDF
In words: Fluorescence Cell-Free Homogeneous Dose Retest to Identify Inhibitors of RecA-Intein Splicing Activity. [Related pubchem assays (depositor defined):AID2097, AID2223, AID489010, AID492950]. In kind it is functional.

The target of series [5] is Genome polyprotein (dengue virus type 2, UniProt P29990). Briefly: Dengue-2 NS5 methyltransferase inhibitors, primary screen, biochemical, confirmation dose response (AID 588689). The series is classed as functional.
Chain of Genome polyprotein (P29990 2492-3391 limits assumed): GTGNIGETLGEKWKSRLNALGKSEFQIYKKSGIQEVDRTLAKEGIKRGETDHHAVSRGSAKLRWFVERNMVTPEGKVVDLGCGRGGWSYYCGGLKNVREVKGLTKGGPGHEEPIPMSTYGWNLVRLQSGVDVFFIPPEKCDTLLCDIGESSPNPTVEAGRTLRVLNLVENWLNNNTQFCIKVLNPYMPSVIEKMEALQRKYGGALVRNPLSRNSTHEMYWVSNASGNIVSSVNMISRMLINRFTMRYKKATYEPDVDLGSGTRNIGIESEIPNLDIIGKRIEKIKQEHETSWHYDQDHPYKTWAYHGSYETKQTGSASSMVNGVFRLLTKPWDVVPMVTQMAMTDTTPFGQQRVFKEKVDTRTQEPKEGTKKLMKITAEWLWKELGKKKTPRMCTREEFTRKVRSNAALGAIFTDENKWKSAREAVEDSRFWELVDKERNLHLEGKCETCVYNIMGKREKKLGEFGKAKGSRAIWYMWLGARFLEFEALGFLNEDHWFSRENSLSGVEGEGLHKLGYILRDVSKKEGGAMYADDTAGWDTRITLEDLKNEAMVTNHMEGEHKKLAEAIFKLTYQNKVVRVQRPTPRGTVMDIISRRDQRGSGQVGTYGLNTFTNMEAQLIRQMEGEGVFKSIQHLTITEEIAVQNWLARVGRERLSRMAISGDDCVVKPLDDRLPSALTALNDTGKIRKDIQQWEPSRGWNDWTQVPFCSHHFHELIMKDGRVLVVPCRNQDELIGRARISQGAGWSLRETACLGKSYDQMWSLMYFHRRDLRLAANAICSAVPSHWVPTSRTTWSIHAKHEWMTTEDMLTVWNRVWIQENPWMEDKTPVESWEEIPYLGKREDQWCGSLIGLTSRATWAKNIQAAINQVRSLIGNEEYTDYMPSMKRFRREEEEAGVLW
In series [6] the target is T4, Polyadenylate-binding protein 1 (Homo sapiens, UniProt P11940). Briefly: PABP1 MLLE–PAM2 interaction inhibitors, dose response, miRNA deadenylation inhibitor project, biochemical, fluorescence polarization, Cy5-PAM2 peptide, secondary (AID 602260). In kind it is functional. The note with it: read-out: IC50_Mean.
T4 sequence (P11940 whole entry): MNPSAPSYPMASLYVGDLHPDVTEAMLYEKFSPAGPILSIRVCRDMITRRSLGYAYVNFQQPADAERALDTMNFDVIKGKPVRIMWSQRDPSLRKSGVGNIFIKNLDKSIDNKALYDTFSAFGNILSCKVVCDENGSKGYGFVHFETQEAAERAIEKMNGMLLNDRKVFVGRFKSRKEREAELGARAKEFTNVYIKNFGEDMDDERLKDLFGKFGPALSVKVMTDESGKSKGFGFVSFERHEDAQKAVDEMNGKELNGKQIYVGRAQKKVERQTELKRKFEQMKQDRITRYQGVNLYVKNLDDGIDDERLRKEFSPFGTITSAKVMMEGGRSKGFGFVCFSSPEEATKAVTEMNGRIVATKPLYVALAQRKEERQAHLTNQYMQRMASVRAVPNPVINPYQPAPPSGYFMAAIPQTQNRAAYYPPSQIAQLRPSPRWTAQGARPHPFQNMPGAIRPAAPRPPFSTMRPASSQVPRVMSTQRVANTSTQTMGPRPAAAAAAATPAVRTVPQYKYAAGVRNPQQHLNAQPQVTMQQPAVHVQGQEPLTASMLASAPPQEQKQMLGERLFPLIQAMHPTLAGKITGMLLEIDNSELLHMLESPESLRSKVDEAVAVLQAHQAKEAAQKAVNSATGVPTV
Series [7] concerns the target T4, Polyadenylate-binding protein 1. In words: PABP1 MLLE–PAM2 binding inhibitor potency, dose response, biochemical, fluorescence polarization, FITC-PAM2 peptide (AID 602259). The note with it: read-out: IC50_Mean. In kind it is functional.
For series [8], the target named is Cytochrome P450 2D6 (Homo sapiens, UniProt P10635).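 Also: CYP2D6 member of a cytochrome P450 panel assay.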
Chain of Cytochrome P450 2D6 (P10635 whole entry): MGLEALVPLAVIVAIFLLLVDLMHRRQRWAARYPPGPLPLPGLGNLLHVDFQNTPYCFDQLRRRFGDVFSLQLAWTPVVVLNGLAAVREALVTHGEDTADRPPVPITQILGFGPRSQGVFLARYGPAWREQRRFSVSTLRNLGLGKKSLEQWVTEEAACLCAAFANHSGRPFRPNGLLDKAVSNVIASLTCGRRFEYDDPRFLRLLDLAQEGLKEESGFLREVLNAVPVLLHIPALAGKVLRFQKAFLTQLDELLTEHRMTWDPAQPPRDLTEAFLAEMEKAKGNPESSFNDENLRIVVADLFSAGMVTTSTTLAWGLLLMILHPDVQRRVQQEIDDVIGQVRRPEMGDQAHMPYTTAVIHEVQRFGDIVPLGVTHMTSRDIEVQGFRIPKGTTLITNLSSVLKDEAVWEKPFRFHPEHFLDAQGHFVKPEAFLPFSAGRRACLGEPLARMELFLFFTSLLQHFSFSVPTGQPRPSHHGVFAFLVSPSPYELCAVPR
For series [9], the target named is Cytochrome P450 3A4 (Homo sapiens, UniProt P08684).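 Also: CYP3A4 tested as one member of a cytochrome P450 panel screen.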
Chain of Cytochrome P450 3A4 (P08684 whole entry): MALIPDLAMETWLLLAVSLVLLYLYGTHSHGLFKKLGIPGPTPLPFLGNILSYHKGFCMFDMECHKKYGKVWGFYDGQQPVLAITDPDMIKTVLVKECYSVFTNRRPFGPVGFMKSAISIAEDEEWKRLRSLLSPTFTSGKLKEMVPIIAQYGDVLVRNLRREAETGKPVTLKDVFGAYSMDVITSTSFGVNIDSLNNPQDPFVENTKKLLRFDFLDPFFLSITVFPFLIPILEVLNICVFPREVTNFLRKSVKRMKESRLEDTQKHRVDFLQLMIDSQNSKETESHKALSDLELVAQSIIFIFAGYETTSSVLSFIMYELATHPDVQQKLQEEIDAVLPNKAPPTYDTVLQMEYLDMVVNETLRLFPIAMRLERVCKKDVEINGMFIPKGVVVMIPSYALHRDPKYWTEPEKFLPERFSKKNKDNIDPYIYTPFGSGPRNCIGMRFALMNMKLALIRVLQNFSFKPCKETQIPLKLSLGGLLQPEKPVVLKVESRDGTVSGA
Series [10] deals with T5, Apoptotic protease-activating factor 1 (Homo sapiens, UniProt O14727).
T5 sequence (O14727 whole entry): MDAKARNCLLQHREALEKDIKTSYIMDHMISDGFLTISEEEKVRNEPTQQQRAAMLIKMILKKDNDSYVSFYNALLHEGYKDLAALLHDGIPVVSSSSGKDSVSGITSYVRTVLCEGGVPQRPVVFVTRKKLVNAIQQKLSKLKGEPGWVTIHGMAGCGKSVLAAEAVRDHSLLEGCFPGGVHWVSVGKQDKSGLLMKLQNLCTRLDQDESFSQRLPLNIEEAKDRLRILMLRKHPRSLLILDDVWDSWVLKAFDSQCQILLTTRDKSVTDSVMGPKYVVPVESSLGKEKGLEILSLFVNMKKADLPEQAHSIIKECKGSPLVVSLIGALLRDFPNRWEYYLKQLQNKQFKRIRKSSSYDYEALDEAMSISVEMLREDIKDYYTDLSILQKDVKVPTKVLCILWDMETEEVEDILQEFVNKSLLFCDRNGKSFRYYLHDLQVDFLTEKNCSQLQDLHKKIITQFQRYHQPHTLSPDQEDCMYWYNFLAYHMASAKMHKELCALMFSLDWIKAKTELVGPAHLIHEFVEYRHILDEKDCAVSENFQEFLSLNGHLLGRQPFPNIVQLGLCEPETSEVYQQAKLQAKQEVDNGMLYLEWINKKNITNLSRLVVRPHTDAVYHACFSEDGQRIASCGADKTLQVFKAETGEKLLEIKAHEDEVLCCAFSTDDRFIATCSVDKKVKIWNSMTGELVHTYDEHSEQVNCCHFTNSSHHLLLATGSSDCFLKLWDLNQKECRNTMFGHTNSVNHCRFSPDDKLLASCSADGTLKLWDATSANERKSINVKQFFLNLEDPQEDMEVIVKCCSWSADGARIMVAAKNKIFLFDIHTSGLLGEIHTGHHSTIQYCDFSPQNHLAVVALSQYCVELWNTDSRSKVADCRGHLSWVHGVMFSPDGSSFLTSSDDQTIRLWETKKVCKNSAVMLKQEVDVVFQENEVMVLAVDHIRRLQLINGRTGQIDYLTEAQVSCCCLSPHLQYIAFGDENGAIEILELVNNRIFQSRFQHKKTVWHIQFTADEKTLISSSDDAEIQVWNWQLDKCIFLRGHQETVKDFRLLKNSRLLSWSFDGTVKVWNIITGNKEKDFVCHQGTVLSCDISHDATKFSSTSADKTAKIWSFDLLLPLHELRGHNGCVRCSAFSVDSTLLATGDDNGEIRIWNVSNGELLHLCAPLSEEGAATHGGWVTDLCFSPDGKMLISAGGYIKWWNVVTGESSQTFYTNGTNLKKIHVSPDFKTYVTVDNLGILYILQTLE
In kind it is functional.

A short description of series [11]: HEp-2 cell cytotoxicity, dose response, cytotoxicity control for RSV inhibitor project, HTS (AID 2410). The series is classed as functional. Conditions: human respiratory syncytial virus.
A short description of series [12]: insulin promoter down-regulators in MIN6 cells, imaging, high-content screening, mouse beta cells (AID 1628). In kind it is functional.
A short description of series [13]: cytotoxicity in MIN6 insulinoma cells, dose response, cytotoxicity control, cell-based, mouse insulinoma (AID 2122).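 Also: confirmatory high-throughput counterscreen run to flag cytotoxic compounds; mouse MIN-6 beta cells carrying an insulin promoter eGFP reporter.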 The series is classed as functional.
Series [14] has as its target T6, Cytochrome P450 1A2 (Homo sapiens, UniProt P05177).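 Also: PubChem cytochrome P450 panel assay, CYP1A2 panel member.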
T6 sequence (P05177 whole entry): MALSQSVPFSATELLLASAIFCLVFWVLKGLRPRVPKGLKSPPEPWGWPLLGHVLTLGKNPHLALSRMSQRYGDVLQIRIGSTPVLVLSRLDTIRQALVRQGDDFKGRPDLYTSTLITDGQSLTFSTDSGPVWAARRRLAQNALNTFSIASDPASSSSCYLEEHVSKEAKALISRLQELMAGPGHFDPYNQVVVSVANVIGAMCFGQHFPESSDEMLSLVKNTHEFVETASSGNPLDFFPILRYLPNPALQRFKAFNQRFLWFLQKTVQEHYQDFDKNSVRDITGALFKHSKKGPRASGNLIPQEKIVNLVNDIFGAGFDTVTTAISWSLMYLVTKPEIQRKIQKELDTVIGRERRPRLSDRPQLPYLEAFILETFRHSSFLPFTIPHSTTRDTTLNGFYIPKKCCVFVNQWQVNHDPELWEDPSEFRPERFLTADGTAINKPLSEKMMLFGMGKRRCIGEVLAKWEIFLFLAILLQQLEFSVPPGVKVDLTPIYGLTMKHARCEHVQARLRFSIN

Series [15] can be described thus: Luminescence Cell-Based Dose Retest to Confirm Inhibitors of Cancer Stem Cells. [Related pubchem assays (depositor defined):AID2717, AID2721]. In kind it is functional. Conditions: Homo sapiens.
Series [16] concerns the target Cytochrome P450 2C9 (Homo sapiens, UniProt P11712).
The nature of series [17]: THP-1 cell cytotoxicity, dose response, cytotoxicity control for Vif-APOBEC3G degradation inhibitor project, THP-1 cells (AID 1117359). The series is classed as functional. Conditions: Human immunodeficiency virus 1, THP-1.
Series [18] deals with INS1. In words: beta cell apoptosis inhibitors, cytokine rescue, dose response, luminescence, retest (AID 449756).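 Also: cell death triggered by IL-1 beta plus TNF-alpha plus IFN-gamma mixture; protective hits raise ATP signal compared with cytokine alone wells.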 Conditions: Rattus norvegicus. In kind it is functional, cell-based.

The source made the active and inactive calls.

Chain of Cytochrome P450 2C9 (P11712 whole entry): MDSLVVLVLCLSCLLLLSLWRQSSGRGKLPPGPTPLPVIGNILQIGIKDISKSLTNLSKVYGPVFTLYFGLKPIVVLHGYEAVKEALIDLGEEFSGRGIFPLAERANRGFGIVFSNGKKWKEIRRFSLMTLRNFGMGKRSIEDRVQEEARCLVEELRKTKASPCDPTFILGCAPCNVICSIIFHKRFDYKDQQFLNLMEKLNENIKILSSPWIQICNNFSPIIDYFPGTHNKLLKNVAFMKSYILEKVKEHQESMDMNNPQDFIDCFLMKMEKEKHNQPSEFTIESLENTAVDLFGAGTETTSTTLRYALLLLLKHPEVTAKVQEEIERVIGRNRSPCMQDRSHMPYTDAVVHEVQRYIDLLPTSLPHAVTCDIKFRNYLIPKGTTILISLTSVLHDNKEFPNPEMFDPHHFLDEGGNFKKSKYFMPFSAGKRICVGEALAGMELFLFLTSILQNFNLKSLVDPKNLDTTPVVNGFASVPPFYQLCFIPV

In the case of `CCOC(=O)N1CCN(C2=C(NS(=O)(=O)c3ccc(Br)cc3)C(=O)c3ccccc3C2=O)CC1`, in series [1], the CC50 was > 40 µM (active).

For the compound `O=C(COC(=O)C1CC(=O)N(Cc2ccco2)C1)c1ccc(OC(=O)c2ccco2)cc1` (stereo not given), in [2], the IC50 was 13.3 µM (active). Also, the AC50 in [3] is > 380 µM (inactive). In addition, the 50% effective concentration (EC50) in [4] is 18 µM (active).

Regarding `Cc1sc2nc3ccc(NCc4ccco4)nn3c(=O)c2c1C`, in series [1], the CC50 is > 40 µM (active). Further, the IC50 in [5] was > 100 µM (active); in series [6], > 66 µM (inactive); in series [7], > 66 µM (inactive).

Take `CCN1CCN(CC(=O)N2c3ccccc3CC2C)CC1.O=C(O)C(=O)O` (stereo not given): the AC50 in series [8] was 17.8 µM (inconclusive); in [9], “inconclusive”.

On to `Cc1ccc(-c2nnc(CSc3nnc(COc4cccc5ccccc45)n3-c3ccccc3)o2)cc1`, for which, in series [10], the IC50 was 6.83 µM (active).

Regarding `CC(=O)c1cccc(S(=O)(=O)N2CCN(c3nc4cc(C)cc(C)c4cc3C#N)CC2)c1`, the 50% cytotoxic concentration (CC50) in series [11] was 18.4 µM (active). Further, the IC50 in series [12] is 3.28 µM (active); in series [13], 5.84 µM (active).

As to `O[C@@H](c1ccccc1)C1CCN(CCc2ccccc2)CC1`, the values for the AC50 in series [8], in [14] and in series [9] were 25.1 µM (inconclusive), 31.6 µM (inconclusive) and “inconclusive”, respectively.

`NCCS` [CYSTEAMINE]: the AC50 result in [9] was “inconclusive”.

For `CSc1nc2ccccc2cc1/C=C(\C#N)c1cccc(Cl)c1`, the AC50 in series [15] was 1.17 µM (active); in [16] it was 39.8 µM (inconclusive); in series [9], “inconclusive”.

In the case of `COc1cc(/C=C2\SC(=S)N(NS(=O)(=O)c3ccccc3)C2=O)cc(OC)c1OC`, the cytotoxic concentration (CC50) in series [1] is > 40 µM (active). In addition, the IC50 in series [5] was 65 µM (active).

On to `CC(=O)O[C@]1(C(C)=O)CC[C@@H]2[C@@H]3C=C(C)C4=CC(=O)CC[C@@]4(C)[C@H]3CC[C@]21C`, for which the AC50 in series [16] is 12.6 µM (inconclusive); in series [9], “inconclusive”.

`COc1cc2c(cc1OC)C(=O)C(Br)CC2` (stereo not given): the CC50 is 26.4 µM (active) in series [1] and > 40 µM (active) in [17].

For the compound `COc1cc(CN2CCN(c3cc(C)ccc3C)CC2)ccc1O`, the figures for the IC50 in [12] and in [13] were 2.74 µM (active) and 1.4 µM (active), respectively. Further, in series [18], the AC50 was 1.66 µM (active).
